Reference: ChEMBL document CHEMBL1909046, “DrugMatrix in vitro pharmacology data”

Legend:
[1] = biological target: T1, Alpha-1B adrenergic receptor (Rattus norvegicus, UniProt P15823); assay: DRUGMATRIX: Alpha-1B adrenergic receptor radioligand binding (ligand: prazosin); format: cell membranes, Wistar, Liver, Membrane; settings: Not Active = under 50% inhibition at 10 µM
T1 sequence (P15823 whole entry): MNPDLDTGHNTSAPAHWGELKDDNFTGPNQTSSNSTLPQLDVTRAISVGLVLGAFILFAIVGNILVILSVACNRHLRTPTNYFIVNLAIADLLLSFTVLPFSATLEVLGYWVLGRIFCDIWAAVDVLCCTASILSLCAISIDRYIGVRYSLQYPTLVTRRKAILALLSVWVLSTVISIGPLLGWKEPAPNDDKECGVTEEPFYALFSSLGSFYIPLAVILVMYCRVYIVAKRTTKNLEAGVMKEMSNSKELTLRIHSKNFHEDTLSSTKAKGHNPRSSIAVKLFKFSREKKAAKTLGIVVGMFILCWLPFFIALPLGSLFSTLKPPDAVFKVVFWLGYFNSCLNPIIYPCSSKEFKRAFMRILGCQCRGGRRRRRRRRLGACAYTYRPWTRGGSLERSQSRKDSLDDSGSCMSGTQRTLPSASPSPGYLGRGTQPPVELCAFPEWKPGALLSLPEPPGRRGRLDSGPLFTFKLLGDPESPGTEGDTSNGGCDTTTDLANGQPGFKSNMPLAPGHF

[2] = biological target: T2, Amine oxidase [flavin-containing] A (Homo sapiens, UniProt P21397); assay: DRUGMATRIX: Monoamine Oxidase MAO-A enzyme inhibition (substrate: Kynuramine); set-up: species or system BTI-TN-5B1-4; settings: bti-tn-5b1-4; Not Active = under 50% inhibition at 10 µM
T2 sequence (P21397 whole entry): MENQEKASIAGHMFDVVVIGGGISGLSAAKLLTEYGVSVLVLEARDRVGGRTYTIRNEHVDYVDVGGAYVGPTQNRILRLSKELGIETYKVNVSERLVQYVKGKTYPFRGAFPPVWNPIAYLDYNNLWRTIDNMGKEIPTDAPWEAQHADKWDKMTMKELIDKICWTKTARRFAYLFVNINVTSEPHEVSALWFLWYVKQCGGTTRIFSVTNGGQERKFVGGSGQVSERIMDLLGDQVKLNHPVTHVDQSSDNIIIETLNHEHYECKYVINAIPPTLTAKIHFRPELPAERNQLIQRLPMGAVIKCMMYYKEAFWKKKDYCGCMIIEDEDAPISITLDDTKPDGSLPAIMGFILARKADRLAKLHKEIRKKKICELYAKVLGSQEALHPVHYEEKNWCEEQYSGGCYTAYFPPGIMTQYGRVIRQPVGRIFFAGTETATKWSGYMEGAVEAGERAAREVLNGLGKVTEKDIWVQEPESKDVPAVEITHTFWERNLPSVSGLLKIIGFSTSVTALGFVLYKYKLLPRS

[3] = DRUGMATRIX: Calcium Channel Type L, Phenylalkylamine radioligand binding (ligand: [3H] (-)-Desmethoxyverapamil (D-888)); format: cell membranes, Rattus norvegicus, Wistar, Brain, Membrane; settings: Not Active = under 50% inhibition at 10 µM
[4] = biological target: T3, Muscarinic acetylcholine receptor M5 (Homo sapiens, UniProt P08912); format: cell membranes, Membrane; settings: cho-k1; note: in other assays of this panel Not Active means under 50% inhibition at 10 µM
T3 sequence (P08912 whole entry): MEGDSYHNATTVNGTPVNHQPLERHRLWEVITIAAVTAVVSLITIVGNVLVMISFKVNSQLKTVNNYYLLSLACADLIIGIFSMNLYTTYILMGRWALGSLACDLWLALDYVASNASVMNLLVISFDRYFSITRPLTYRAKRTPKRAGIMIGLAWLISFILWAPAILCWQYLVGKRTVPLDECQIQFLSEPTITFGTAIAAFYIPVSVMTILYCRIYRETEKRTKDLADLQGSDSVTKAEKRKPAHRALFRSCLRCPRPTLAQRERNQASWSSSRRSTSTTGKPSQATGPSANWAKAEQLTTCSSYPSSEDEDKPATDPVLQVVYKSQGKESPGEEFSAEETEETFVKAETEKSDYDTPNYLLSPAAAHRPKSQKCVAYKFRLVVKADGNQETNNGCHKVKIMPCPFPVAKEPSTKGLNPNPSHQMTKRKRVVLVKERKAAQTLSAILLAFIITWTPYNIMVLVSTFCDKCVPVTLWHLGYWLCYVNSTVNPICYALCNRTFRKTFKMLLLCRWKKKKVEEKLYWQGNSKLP

[5] = biological target: 5-hydroxytryptamine receptor 1B (Rattus norvegicus, UniProt P28564); format: cell membranes, Wistar, Cerebral cortex, Membrane; note: in other assays of this panel Not Active means under 50% inhibition at 10 µM
[6] = biological target: Insulin receptor (Rattus norvegicus, UniProt P15127); format: cell membranes, Wistar, Liver, Membrane; note: in other assays of this panel Not Active means under 50% inhibition at 10 µM
[7] = biological target: Cytochrome P450 2D6 (Homo sapiens, UniProt P10635); settings: bti-tn-5b1-4; note: in other assays of this panel Not Active means under 50% inhibition at 10 µM
Chain of Cytochrome P450 2D6 (P10635 whole entry): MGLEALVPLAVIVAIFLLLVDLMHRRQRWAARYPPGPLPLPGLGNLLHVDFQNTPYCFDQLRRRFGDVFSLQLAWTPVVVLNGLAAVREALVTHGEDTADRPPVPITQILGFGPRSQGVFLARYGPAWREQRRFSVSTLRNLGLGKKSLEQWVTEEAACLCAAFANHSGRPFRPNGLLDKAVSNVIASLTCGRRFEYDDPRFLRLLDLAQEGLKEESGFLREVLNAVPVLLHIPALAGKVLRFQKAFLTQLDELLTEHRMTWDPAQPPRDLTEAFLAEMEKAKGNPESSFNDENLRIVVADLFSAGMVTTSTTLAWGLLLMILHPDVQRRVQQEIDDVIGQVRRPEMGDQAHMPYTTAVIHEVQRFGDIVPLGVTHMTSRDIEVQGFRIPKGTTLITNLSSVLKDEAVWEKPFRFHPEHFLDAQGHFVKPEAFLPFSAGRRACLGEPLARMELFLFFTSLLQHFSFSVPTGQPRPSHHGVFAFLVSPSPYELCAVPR

Chain of Insulin receptor (P15127 27-759 limits assumed): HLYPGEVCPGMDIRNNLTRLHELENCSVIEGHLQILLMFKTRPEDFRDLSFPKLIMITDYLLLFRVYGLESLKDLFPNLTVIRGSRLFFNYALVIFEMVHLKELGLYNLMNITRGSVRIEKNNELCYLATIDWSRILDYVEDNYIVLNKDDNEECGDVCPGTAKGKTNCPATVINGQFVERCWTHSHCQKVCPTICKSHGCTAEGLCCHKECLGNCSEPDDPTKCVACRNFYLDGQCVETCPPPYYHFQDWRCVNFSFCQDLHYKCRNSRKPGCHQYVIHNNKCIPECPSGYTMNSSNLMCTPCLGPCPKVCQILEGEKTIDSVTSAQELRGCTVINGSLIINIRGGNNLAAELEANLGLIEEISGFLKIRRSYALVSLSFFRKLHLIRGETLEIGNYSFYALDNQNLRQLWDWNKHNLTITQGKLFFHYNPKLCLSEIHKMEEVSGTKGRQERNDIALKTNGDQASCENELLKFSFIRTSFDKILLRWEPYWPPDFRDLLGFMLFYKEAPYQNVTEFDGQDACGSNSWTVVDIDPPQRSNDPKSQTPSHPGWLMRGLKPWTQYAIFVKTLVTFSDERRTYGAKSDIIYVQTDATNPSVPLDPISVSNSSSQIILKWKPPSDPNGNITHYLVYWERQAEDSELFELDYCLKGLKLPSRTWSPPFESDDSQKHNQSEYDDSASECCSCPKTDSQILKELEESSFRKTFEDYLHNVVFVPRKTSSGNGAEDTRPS
Chain of Insulin receptor (P15127 764-1383 limits assumed): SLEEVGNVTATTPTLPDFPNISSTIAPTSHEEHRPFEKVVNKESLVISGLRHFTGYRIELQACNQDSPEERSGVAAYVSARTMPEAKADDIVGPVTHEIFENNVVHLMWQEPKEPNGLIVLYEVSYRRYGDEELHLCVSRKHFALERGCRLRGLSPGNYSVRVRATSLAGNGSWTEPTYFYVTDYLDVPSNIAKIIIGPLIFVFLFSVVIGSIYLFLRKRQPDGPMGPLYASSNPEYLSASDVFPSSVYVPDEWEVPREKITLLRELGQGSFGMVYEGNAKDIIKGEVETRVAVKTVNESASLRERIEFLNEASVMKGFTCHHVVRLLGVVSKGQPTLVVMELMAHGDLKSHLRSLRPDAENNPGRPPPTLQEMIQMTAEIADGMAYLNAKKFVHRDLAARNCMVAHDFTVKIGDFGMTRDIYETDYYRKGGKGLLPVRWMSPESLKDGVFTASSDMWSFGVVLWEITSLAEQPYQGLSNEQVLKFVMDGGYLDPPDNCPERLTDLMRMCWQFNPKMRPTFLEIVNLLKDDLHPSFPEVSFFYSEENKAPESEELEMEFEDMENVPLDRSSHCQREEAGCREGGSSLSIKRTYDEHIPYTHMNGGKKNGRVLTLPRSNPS
Chain of 5-hydroxytryptamine receptor 1B (P28564 whole entry): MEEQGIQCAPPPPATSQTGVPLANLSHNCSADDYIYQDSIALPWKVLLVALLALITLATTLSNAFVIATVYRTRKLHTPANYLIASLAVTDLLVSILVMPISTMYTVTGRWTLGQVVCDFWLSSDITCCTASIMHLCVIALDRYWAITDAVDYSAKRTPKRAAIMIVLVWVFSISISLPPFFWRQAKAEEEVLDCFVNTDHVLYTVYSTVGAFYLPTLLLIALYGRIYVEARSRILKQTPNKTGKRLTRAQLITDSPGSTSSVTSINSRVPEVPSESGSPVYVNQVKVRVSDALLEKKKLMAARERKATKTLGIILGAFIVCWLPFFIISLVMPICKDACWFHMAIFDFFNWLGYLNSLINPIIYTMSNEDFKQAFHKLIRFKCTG

Compound | IC50 [1] | IC50 [2] | IC50 [3] | Ki [3] | IC50 [4] | IC50 [5] | IC50 [6] | IC50 [7] | Ki [7] | Ki [1] | Ki [2] | Ki [4] | Ki [5] | Ki [6] | IC50 ([3]; read-out: IC50) | Ki ([3]; read-out: Ki)
Nc1ccc(S(=O)(=O)Nc2ncccn2)cc1 [SULFADIAZINE] | Not Active | Not Active | Not Active | Not Active | Not Active | Not Active | Not Active | Not Active | Not Active |  |  |  |  |  |  | 
Nc1ccc(S(=O)(=O)Nc2nccs2)cc1 [SULFATHIAZOLE] | Not Active | Not Active | Not Active | Not Active | Not Active | Not Active | Not Active | Not Active | Not Active |  |  |  |  |  |  | 
O=C(O)C(Cl)(Cl)Cl [TRICHLOROACETIC ACID] | Not Active | Not Active | Not Active | Not Active | Not Active | Not Active | Not Active | Not Active | Not Active |  |  |  |  |  |  | 
C=C(C)[C@H]1Cc2c(ccc3c2O[C@@H]2COc4cc(OC)c(OC)cc4[C@@H]2C3=O)O1 [ROTENONE] | Not Active | Not Active | Not Active | Not Active | Not Active | Not Active | Not Active | Not Active | Not Active |  |  |  |  |  |  | 
THIMEROSAL | Not Active | Not Active | Not Active | Not Active | Not Active | Not Active | Not Active | 3000 nM |  | Not Active | Not Active | Not Active | Not Active | Not Active |  | 
C[C@]12CC[C@H]3[C@@H](CCC4=CC(=O)CC[C@@]43C)[C@@H]1CC[C@@H]2O [TESTOSTERONE] | Not Active | Not Active | Not Active | Not Active | Not Active | Not Active | Not Active | Not Active | Not Active |  |  |  |  |  |  | 
C[C@@H]1C[C@H]2[C@@H]3CCC4=CC(=O)C=C[C@]4(C)C3=CC[C@]2(C)[C@H]1C(=O)CN1CCN(c2cc(N3CCCC3)nc(N3CCCC3)n2)CC1 [TIRILAZAD] | Not Active | Not Active |  |  | Not Active | Not Active | Not Active | Not Active | Not Active |  |  |  |  |  | 2500 nM | 2430 nM
NC[C@H]1O[C@H](O[C@H]2[C@H](O)[C@@H](O[C@H]3O[C@H](CO)[C@@H](O)[C@H](N)[C@H]3O)[C@H](N)C[C@@H]2N)[C@H](N)C[C@@H]1O [TOBRAMYCIN] | Not Active | Not Active | Not Active | Not Active | Not Active | Not Active | Not Active | Not Active | Not Active |  |  |  |  |  |  | 
CN[C@@H]1[C@H](O)[C@H](NC)[C@H]2O[C@@]3(O)C(=O)C[C@@H](C)O[C@H]3O[C@@H]2[C@H]1O [SPECTINOMYCIN] | Not Active | Not Active | Not Active | Not Active | Not Active | Not Active | Not Active | Not Active | Not Active |  |  |  |  |  |  | 
CO[C@H]1C[C@@H]2CC[C@@H](C)[C@@](O)(O2)C(=O)C(=O)N2CCCC[C@H]2C(=O)O[C@H]([C@H](C)C[C@@H]2CC[C@@H](O)[C@H](OC)C2)CC(=O)[C@H](C)/C=C(\C)[C@@H](O)[C@@H](OC)C(=O)[C@H](C)C[C@H](C)/C=C/C=C/C=C/1C [SIROLIMUS] | Not Active | Not Active | Not Active | Not Active | Not Active | Not Active | Not Active | Not Active | Not Active |  |  |  |  |  |  | 
O=P(O)(O)C(O)(Cc1cccnc1)P(=O)(O)O [RISEDRONIC ACID] | Not Active | Not Active | Not Active | Not Active | Not Active | Not Active | Not Active | Not Active | Not Active |  |  |  |  |  |  | 
